# Measurements: US4588715A, “Heptenoic acid derivatives” (Sandoz, Inc., priority 1984, dated 1986)
# Values joined by “and” are separate entries in the source; they are usually repeats but may differ in a detail not shown here. Identical values can stand only once. Like-named read-outs stand apart in the source and are kept apart here.
# Legend:
# Cholesterol Biosynthesis [1] = assay: Test B. In Vitro Cell Culture Cholesterol Biosynthesis Screen (Fu5AH rat hepatoma cell line); type: cell-based; conditions: Fu5AH rat hepatoma cells, [14C]acetate, 3 hours; for inhibition at 10 µM: concentration 10 μM; for inhibition at 1 µM: concentration 1 μM
# Procedure: Test B. In Vitro Cell Culture Cholesterol Biosynthesis Screen
# The cell culture is prepared as follows: Stock monolayer cultures of the Fu5AH rat hepatoma cell line (originally obtained from G. Rothblat; see Rothblat, Lipids 9, 526-535 (1974) are routinely maintained in Eagle's Minimum Essential Medium (EMEM) supplemented with 10% fetal bovine serum (FBS) in 75 cm^2. tissue culture flasks. For these studies, when the cultures reach confluence, they are removed by mild enzymatic treatment with 0.25% trypsin in Hanks' balanced salt solution (without calcium and magnesium). After centrifugation of the cell suspension and aspiration of the enzymatic solution, the cell pellet is resuspended in an appropriate volume of media for seeding into 60 mm. tissue culture dishes. The cultures are incubated at 37° C. in an atmosphere of high humidity and 5% carbon dioxide. When the cultures are confluent (approximately 5 days), they are ready for use. The culture media is aspirated from the dishes and replaced with 3 ml. of EMEM supplemented with 5 mg./ml. of delipidized serum protein (DLSP) prepared by the method of Rothblat et al., In Vitro 12, 554-557 (1976). […] Enhanced 3-hydroxy-3-methylglutaryl Coenzyme A reductase (HMG-CoA reductase) activity is measurable in the cells in response to the lack of exogenous sterol. Following approximately 24 hours incubation at 37° C. in the DLSP supplemented media, the assay is initiated by the addition of 3μCi of [^14 C]acetate and the test substances solubilized in dimethylsulfoxide (DMSO) or distilled water. Solvent controls and compactin-treated controls are always prepared. Triplicate 60 mm. tissue culture dishes are run for each group. After 3 hours incubation at 37° C., the cultures are examined microscopically using an inverted phase contrast microscope. Notations are made of any morphological changes which may have occurred in the cultures. The media is aspirated and the cell layer is gently washed twice with 0.9% sodium chloride solution (saline). The cell layer is then harvested in 3 ml. of 0.9% saline by gentle scraping with a rubber policeman and transferred to a clean glass tube with Teflon lined cap. The dishes are rinsed with 3 ml. of 0.9 % saline and rescraped, and the cells are combined with the first harvest. The tubes are centrifuged at 1500 r.p.m. for 10 minutes in an IEC PR-J centrifuge, and the supernatant is aspirated.
# The cells are then extracted as follows: One ml. of 100% ethanol is added to the cell pellet followed by sonication for 10 seconds with a "LO" setting of 50 on a Bronwell Biosonik IV. One hundred μL. are taken for protein determination. One ml. of 15% potassium hydroxide (KOH) is added, and the samples are thoroughly vortexed. Saponification is accomplished by heating the ethanol-KOH treated samples at 60° C. for 60 minutes in a water bath. Following dilution of the samples with 2 ml. of distilled water, they are extracted three times with 7 ml. of petroleum ether. The petroleum ether extracts are then washed three times with 2 ml. of distilled water and finally taken to dryness under a stream of nitrogen.
# The obtained samples are then analyzed by thin layer chromatography (TLC) as follows: Residues from the petroleum ether extraction are taken up in a small volume of hexane and spotted on silica gel 60 TLC plates (E. Merck). Development of the plates is carried out in a 150 parts by volume hexane: 50 parts by volume diethyl ether: 5 parts by volume glacial acetic acid solvent system using a three phase development procedure. Visualization is accomplished in an iodine vapor chamber. The plates are divided into five sections such that each section contains the molecules having the following approximate Rf values: section 1-0-0.4, section 2-0.4-0.55, section 3-0.55-0.7, section 4-0.7-0.9 and section 5-0.9-1.0. Section 2 contains the non-saponifiable sterols. The five sections of the TLC plates are scraped into scintillation vials. […]
# HMG-CoA reductase = target: T1, HMG-CoA reductase (Rattus norvegicus, UniProt P51639); assay: Test A. In Vitro Microsomal Assay of HMG-CoA Reductase Inhibition; type: biochemical; conditions: saponified products M=Na, unsaponified products tested in DMA
# T1 construct: the microsomes are the source of the HMG-CoA reductase enzyme; from tissue; host or cells: liver microsomes, male Sprague-Dawley rats
# T1 sequence (P51639 1-887): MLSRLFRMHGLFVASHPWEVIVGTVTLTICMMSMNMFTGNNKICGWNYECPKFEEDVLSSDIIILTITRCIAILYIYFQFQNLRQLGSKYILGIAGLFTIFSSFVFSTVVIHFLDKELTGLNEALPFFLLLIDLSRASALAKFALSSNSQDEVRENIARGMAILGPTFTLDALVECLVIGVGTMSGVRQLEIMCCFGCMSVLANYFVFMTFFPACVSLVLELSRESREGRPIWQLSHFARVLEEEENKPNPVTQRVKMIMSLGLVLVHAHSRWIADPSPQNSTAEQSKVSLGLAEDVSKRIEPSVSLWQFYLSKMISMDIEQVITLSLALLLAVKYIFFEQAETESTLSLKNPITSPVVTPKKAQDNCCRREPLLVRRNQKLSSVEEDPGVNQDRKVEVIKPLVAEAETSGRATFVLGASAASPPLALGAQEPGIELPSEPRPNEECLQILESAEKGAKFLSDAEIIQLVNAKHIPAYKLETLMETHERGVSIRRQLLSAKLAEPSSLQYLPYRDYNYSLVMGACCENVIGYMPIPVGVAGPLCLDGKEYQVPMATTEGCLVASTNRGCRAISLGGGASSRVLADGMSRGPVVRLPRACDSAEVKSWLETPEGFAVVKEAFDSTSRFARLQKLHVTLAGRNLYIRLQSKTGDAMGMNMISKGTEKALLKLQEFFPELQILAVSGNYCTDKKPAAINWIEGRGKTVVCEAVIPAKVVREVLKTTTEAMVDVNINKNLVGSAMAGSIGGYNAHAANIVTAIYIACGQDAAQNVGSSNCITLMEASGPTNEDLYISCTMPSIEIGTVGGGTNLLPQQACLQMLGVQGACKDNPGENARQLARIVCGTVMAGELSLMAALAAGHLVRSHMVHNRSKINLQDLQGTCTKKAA
# Procedure: Test A. In Vitro Microsomal Assay of HMG-CoA Reductase Inhibition
# 200 μl. aliquots (1.08-1.50 mg./ml.) of rat liver microsomal suspensions, freshly prepared from male Sprague-Dawley rats (150-225 g. body weight), in Buffer A with 10 mmol. dithiothreitol are incubated with 10 μl. test substance dissolved in dimethylacetamide and assayed for HMG-CoA reductase activity as described by Ackerman et al., J. Lipid Res. 18,408-413 (1977). In the assay the microsomes are the source of the HMG-CoA reductase enzyme which catalyzes the reduction of HMG-CoA to mevalonate. The assay employs a chloroform extraction to separate the product, [^14 C]mevalonolactone, formed by the HMG-CoA reductase reaction from the subsubstrate, [^14 C]HMG-CoA. [^3 H]mevalonolactone is added as an internal reference. Inhibition of HMG-CoA reductase is calculated from the decrease in specific activity [^14 C/^3 H]mevalonate) of test groups compared to controls.
# IC50 is the concentration of the test substance in the assay system
# Cholesterol Biosynthesis [2] = assay: Test C: In Vivo Cholesterol Biosynthesis Inhibition Tests; parameters: species or system male Wistar Royal Hart rats; conditions: for ED50: Rattus norvegicus
# Procedure: Test C: In Vivo Cholesterol Biosynthesis Inhibition Tests: In vivo studies utilize male Wistar Royal Hart rats weighing 150±20 g. which have been kept for 7-10 days on an altered light cycle (6:30 A.M.-6:30 P.M. dark) housed two per cage and fed powdered Purina Rat Chow and water ad libitum. Three hours before the diurnal maximum of cholesterol synthesis at mid-dark, the rats are administered the test substances dissolved or as a suspension in 0.5% carboxymethylcellulose in a volume of 1 ml./100 g. body weight. Controls receive vehicle alone. One hour after receiving the test substance, the rats are injected intraperitoneally with about 25 μCi/100 g. body weight of sodium [1-^14 C]acetate 1-3 mCi/mmol. Two hours after mid-dark, blood samples are obtained under sodium hexobarbitol anesthesia and the serum separated by centrifugation.
# Serum samples are saponified and neutralized, and the 3β-hydroxy sterols are precipitated with digitonin basically as described by Sperry et al., J. Biol. Chem. 187,97 (1950). The [^14 C]digitonides are then counted by liquid scintillation spectrometry. After correcting for efficiencies, the results are calculated in nCi (nanocuries) of sterol formed per 100 ml. of serum. Inhibition of sterol synthesis is calculated from the reduction in the nCi of sterols formed from test groups compared to controls.
Structure (SMILES),inhibition at 10 µM (Cholesterol Biosynthesis [1]) [%],"IC50 (HMG-CoA reductase; IC50, rat liver microsomes)",further results
"Cc1cc(C)c(/C=C/[C@@H]2C[C@@H](O)CC(=O)O2)c([Si](C)(C)c2ccccc2)c1 (relative stereo) [Example 6a (Ia""')]",73,–,–
CCOC(=O)C[C@H](O)C[C@H](O)/C=C/c1c(C)cc(OC)cc1[Si](C)(C)c1ccccc1 (relative stereo) [Example 5e (Ia')],28,–,–
"CCOC(=O)C[C@H](O)C[C@H](O)/C=C/c1c(C)ccc(C)c1[Si](C)(C)c1ccccc1 (relative stereo) [Example 9 (Ib'), Ethyl 7-[3,6-dimethyl-(2-dimethylphenylsilyl)-phenyl]-3,5-dihydroxy hept-6-enoate, (erythro,trans)]",–,28.1 µM,inhibition at 1 µM (Cholesterol Biosynthesis [1]): 19%
Cc1cc(Cl)cc([Si](C)(C)c2ccccc2)c1/C=C/[C@@H](O)C[C@@H](O)CC(=O)O (relative stereo) [Example 6b (Ia^s)],–,17.1 µM and 14.2 µM,–
CCOC(=O)C[C@H](O)C[C@H](O)/C=C/c1c(C)cc(Cl)cc1[Si](C)(c1ccccc1)c1ccccc1 (relative stereo) [Example 7a (Ia')],17,–,–
"C[Si](c1ccccc1)(c1ccccc1)c1ccccc1/C=C/[C@@H]1C[C@@H](O)CC(=O)O1 (relative stereo) [Example 3 (Ia""'), 4-Hydroxy-6{2-[2-(methyldiphenylsilyl)phenyl]ethenyl}-2H-tetrahydropyran-2-one(trans,trans)]",74,–,–
CCOC(=O)C[C@H](O)C[C@H](O)/C=C/c1c(C)cc(C)cc1[Si](C)(C)c1ccccc1 (relative stereo) [Example 5a (Ia')],–,14.7 µM,inhibition at 1 µM (Cholesterol Biosynthesis [1]): 47%
Cc1cc(C)c(/C=C/[C@@H](O)C[C@@H](O)CC(=O)O)c([Si](C)(C)c2ccccc2)c1 (relative stereo) [Example 6a (Ia^s)],–,6.9 µM,–
Cc1cccc([Si](C)(C)c2ccccc2)c1/C=C/[C@@H](O)C[C@@H](O)CC(=O)O (relative stereo) [Example 6g (Ia^s)],–,4.3 µM,–
"Cc1cc(Cl)cc([Si](C)(c2ccccc2)c2ccccc2)c1/C=C/[C@@H]1C[C@@H](O)CC(=O)O1 (relative stereo) [Example 8a (Ia""')]",33,–,–
"Cc1cccc([Si](C)(C)c2ccccc2)c1/C=C/[C@@H]1C[C@@H](O)CC(=O)O1 (relative stereo) [Example 6g (Ia""')]",65,27.2 µM,"% Inhibition (Cholesterol Biosynthesis [2]; dose 48 mg/kg, serum sterol synthesis, rats): 57%"
"Cc1cc(Cl)cc([Si](C)(C)c2ccccc2)c1/C=C/[C@@H]1C[C@@H](O)CC(=O)O1 (relative stereo) [Example 6b (Ia""')]",–,16.4 µM,–
"CC[C@H](C)C(=O)O[C@H]1CCC=C2C=C[C@H](C)[C@H](CC[C@@H]3C[C@@H](O)CC(=O)O3)[C@H]21 [compactin, reference compound]",–,–,"inhibition at 0.08 µM (Cholesterol Biosynthesis [1]; concentration 0.08 μM): 50%; ED50 (Cholesterol Biosynthesis [2]; standard, serum sterol synthesis, rats, read-out: ED50): 3.5 mg/kg; IC50 (HMG-CoA reductase; rat liver microsomes, read-out: IC50): 0.8 µM"
CC[C@H](C)C(=O)O[C@H]1C[C@@H](C)C=C2C=C[C@H](C)[C@H](CC[C@@H]3C[C@@H](O)CC(=O)O3)[C@H]21 [Mevinolin],–,–,ED50 (Cholesterol Biosynthesis [2]): 0.41 mg/kg
"C[Si](C)(c1ccccc1)c1ccccc1/C=C/[C@@H]1C[C@@H](O)CC(=O)O1 (relative stereo) [Example 4 (Ia""'), 4-Hydroxy-6{2-[2-(dimethylphenylsilyl)phenyl]ethenyl}-2H-tetrahydropyran-2-one]",56,–,–
Cc1ccc(C)c([Si](C)(C)c2ccccc2)c1/C=C/[C@@H](O)C[C@@H](O)CC(=O)O (relative stereo) [Example 10 (Ib^s)],–,9 µM,–
"Cc1ccc(C)c([Si](C)(C)c2ccccc2)c1/C=C/[C@@H]1C[C@@H](O)CC(=O)O1 (relative stereo) [Example 10 (Ib""'), 6-{2-[3,6-dimethyl-2-(dimethylphenylsilyl)phenyl]ethenyl}4-hydroxy-tetrahydro-2H-pyran-2-one (trans,trans)]",63,24.4 µM,–
Cc1cccc([Si](C)(c2ccccc2)c2ccccc2)c1/C=C/[C@@H](O)C[C@@H](O)CC(=O)O (relative stereo) [Example 8b (Ia^s)],–,52.4 µM,–
